In publication PMC10644722, “Discovery of inhibitors of protein tyrosine phosphatase 1B contained in a natural products library from Mexican medicinal plants and fungi using a combination of enzymatic and in silico methods**” (Frontiers in Pharmacology, 2023):
Several values for one entry are separate records, joined by “and”; a condition that tells them apart may be missing. Identical values can stand only once. Entries after “also recorded” stand apart in the source; their conditions may differ. Like-named read-outs stand apart in the source and are kept apart here.

How the values were obtained:
PTP1B [1] = system: PTP1B; set-up: method as in Lantz et al., 2010; Kumar et al., 2020; conditions: known inhibitors of PTP1B; ref Lantz et al., 2010; Kumar et al., 2020; cited from earlier work
hPTP1B1-400 = target: T1, hPTP1B1-400 (Homo sapiens, UniProt P18031); experiment: PTP1B inhibition assay (spectrophotometric, 4-nitrophenyl phosphate); assay type: biochemical; conditions: for ΔA, activity difference between UA and the compound: absolute pIC50 difference against ursolic acid
T1 sequence (P18031 1-400): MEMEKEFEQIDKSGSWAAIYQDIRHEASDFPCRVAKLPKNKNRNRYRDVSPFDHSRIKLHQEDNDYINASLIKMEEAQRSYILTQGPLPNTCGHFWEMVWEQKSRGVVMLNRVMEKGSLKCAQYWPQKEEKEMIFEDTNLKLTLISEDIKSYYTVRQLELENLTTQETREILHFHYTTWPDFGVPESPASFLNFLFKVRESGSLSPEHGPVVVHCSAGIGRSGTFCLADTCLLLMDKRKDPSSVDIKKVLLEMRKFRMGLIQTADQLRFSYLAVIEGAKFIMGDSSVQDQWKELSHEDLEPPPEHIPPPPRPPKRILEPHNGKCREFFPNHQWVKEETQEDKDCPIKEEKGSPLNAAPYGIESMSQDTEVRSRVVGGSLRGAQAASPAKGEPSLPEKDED
Protocol: The inhibitory activity was determined as a percentage compared to the blank (Buffer) according to the following equation: %InhibitionPTP1B=1−A405s/A405b×100%, (1) where A405(s) is the ΔA of the sample (At20 − At0), A405(b) is the ΔA of the blank obtained in the same manner as that of the sample. Using the data obtained, the enzyme inhibition curve was plotted, for which the average percentage of inhibition was plotted as a function of the inhibitor concentration.

PTP1B [2] = target: T2, PTP1B (Homo sapiens, UniProt P18031); experiment: Kinetic analysis of PTP1B inhibition; assay type: biochemical; conditions: for type of inhibition: double-reciprocal plots, global nonlinear fit; for VMAX: maximum velocity, nonlinear fit, substrate 4-NP
T2 sequence (P18031 1-400): T1 sequence (P18031 1-400)
Protocol: The conditions for preparing reagents (enzyme and substrate), incubation, and analysis of results were the same as that described in Section 2.1 ([Jiménez-Arreola et al., 2020]; [Díaz-Rojas et al., 2021]). Additional steps in the methodology are described below.
To characterize the type of inhibition exerted by 1, 3, and 6 on PTP1B, the hydrolysis of 4-NP at the sub-saturating state and increasing concentrations of each compound was measured. […] The compound concentration yielding 50% activity inhibition was interpolated from the results by fitting into a general inhibition model. The resulting set of activities was fitted globally using the non-linear regression algorithm of Levenberg–Marquardt as implemented in the Gnuplot ([Williams et al., 2017]). Each group was fitted to the kinetic equations for linear competitive, linear uncompetitive, linear non-competitive (classic), linear mixed type, parabolic competitive, parabolic uncompetitive, and parabolic non-competitive inhibition mechanisms. The best fit was ascertained by the reduced chi-squared (χ^2) value, residual distribution, and uncertainty in the parameter estimates. The best description of the inhibition data for compounds 1, 3, and 6 was obtained with Eq. 2, Eq. 3, and Eq. 4, respectively, where VMAX, KM, and KIcu, KIC, and KIU are the maximum velocity, Michaelis constant for the substrate 4-NP, and inhibition constants for each type of inhibition, respectively. v0=VMAX4NP/KM1+I/KIcu+4NP1+I/KIcu, (2) v0=VMAX4NP/KM1+I/KIC+4NP1+I/KIU, (3) v0=VMAX4NP/KM1+I/KIC+I^2/KIC2^2+4NP. (4)

ICR mice = conditions: male, mouse, in vivo, 14 days
Protocol: The potential acute toxicity of compound 6 was determined according to the Lorke’s method ([Lorke, 1983]). The evaluation was performed following the Official Mexican Norm for Laboratory Animal Care and Use (NOM-062-ZOO-1999), with international conventional codes for laboratory animal use, and approved by the Institutional Committee for Care and Use of Laboratory Animals (CICUAL-FQ), Facultad de Química, UNAM (FQ/CICUAL/440/21). […]. At the end of the experiments, the mice were euthanized by hypoxia in a CO2 chamber.
Compound 6 was fed by an intragastric route in two independent phases. In each case, 12 mice were divided into four groups (n = 3). In the first stage, the animals were treated with 10, 100, and 1,000 mg/kg; in the second phase, 1,600, 2,900, and 5,000 mg/kg were administered. The control animals were fed 0.05% Tween 80® in saline solution. The weight of the animals was measured daily for 14 days at each stage. At the end of the test, all animals were euthanized to obtain the lungs, heart, kidneys, and liver to detect macroscopic organ injury.

[3] = DoseResp model fit, Origin 8.0, axis C (mM), read-out: LOGx0 of the IC50 curve
[4] = enzyme 66 nM, 4-NP 0.125 mM, Tris-HCl pH 6.8, 20 min, room temperature, read-out: IC50
[5] = negative log of the IC50 in Molar, read-out: pIC50 (converted)
[6] = Hill1 model fit, Origin 8.0, axis C (mM), read-out: k of the IC50 curve
[7] = negative log of the IC50 in Molar
[8] = IC50 (μM), enzyme 66 nM, 4-NP 0.125 mM, Tris-HCl pH 6.8, 20 min, room temperature
[9] = LOGx0 of the IC50 curve, DoseResp model fit, Origin 8.0, axis C (mM)
[10] = pIC50, negative log of the IC50 in Molar
[11] = mixed type (Eq. 3) or parabolic competitive model (Eq. 4), read-out: KIC

Row | Compound | IC50 (hPTP1B1-400; [3]) [mM] | ΔA, activity difference between UA and the compound (hPTP1B1-400) | IC50 (hPTP1B1-400; [4]) [mM] | IC50 (hPTP1B1-400; [5]) [mM] | pIC50 (hPTP1B1-400; [7]) | also measured
1 | CC(C)[C@@H](CC[C@@H](C)[C@H]1CC[C@H]2[C@@H]3[C@H](O)C[C@H]4C[C@@H](NCCCNCCCCNCCCN)CC[C@]4(C)[C@H]3CC[C@]12C)OS(=O)(=O)O [T, trodusquemine] |  |  |  |  |  | pIC50 (PTP1B [1]): 6.0
2 | Cc1cc(-c2c3ccccc3c(Br)c3sc(C)c(C)c23)cc(C)c1O[C@H](Cc1ccccc1)C(=O)O [E, ertiprotafib] |  |  |  |  |  | pIC50 (PTP1B [1]): 4.70
3 | C[C@H]1C(=O)CC[C@@H]2[C@]1(C)CC[C@H]1[C@@]2(C)CC[C@@]2(C)[C@@H]3CC(C)(C)CC[C@]3(CO)CC[C@]12C [Compound 1, Canophyllol] | 0.0332 ± 0.00257 | 0.2 | 0.0332 ± 3e-06 | 0.0331 |  | %I (hPTP1B1-400; 0.02 mM compound): 95.54 ± 1.82%; %I (hPTP1B1-400; 1 mM compound): 98.59 ± 0.28%; type of inhibition (PTP1B [2]): non-competitive inhibitor; VMAX (PTP1B [2]): 44.1 mM/min; Ki (PTP1B [2]; non-competitive model (Eq. 2), read-out: KIcu): 9 µM
4 | COc1ccc([C@H]2OC[C@H]3[C@@H]2CO[C@@H]3c2ccc3c(c2OC)OCO3)cc1OC [Compound 47, 2'-Methoxykobusin] |  | 0.8 | 0.1253 ± 9e-06 |  | 3.90 | IC50 (hPTP1B1-400; [6]): 0.125 ± 0.00914 mM
5 | CC[C@H](/C=C/[C@@H](C)[C@H]1CC[C@H]2C3=CC[C@H]4C[C@@H](OC(C)=O)CC[C@]4(C)[C@H]3CC[C@]12C)C(C)C [Compound 85, α-Spinasterol acetate] |  | 1.1 |  |  |  | IC50 (hPTP1B1-400; [8]): 0.2772 ± 1e-05 mM; IC50 (hPTP1B1-400; [9]): 0.277 ± 0.0114 mM; IC50 (hPTP1B1-400; [10]): 0.275 mM
6 | COc1cc(CCc2ccc(OC)c(OC)c2)cc(OC)c1 [Compound 91, 3,3',4',5-Tetramethoxybibenzyl] |  | 1.3 |  |  |  | IC50 (hPTP1B1-400; [8]): 0.4195 ± 6e-06 mM; IC50 (hPTP1B1-400; [9]): 0.42 ± 0.00629 mM; IC50 (hPTP1B1-400; [10]): 0.417 mM
7 | Oc1cccc(CCc2ccc3c(c2)OCO3)c1 [Compound 25] | 0.662 ± 0.134 | 1.5 | 0.6621 ± 0.00013 |  | 3.18 | 
8 | C/C(=C/CC[C@H](C)[C@@H]1CC[C@]2(C)C3=CC[C@H]4C(C)(C)[C@H](O)CC[C@]4(C)[C@H]3CC[C@@]12C)C(=O)O [Compound 49, 3α-Hydroxymasticadienonic acid] | 0.151 ± 0.0053 | 0.8 | 0.1507 ± 5e-06 |  | 3.82 | 
9 | 7-Methylluteolin [Compound 50] | 0.435 ± 0.00856 | 1.3 | 0.4349 ± 8e-06 |  | 3.36 | 
10 | Albolutein C [Compound 98] |  | 0.8 | 0.13 ± 0.0026 |  | 3.89 | 
11 | CC(=O)OC[C@H]1O[C@@H](Oc2cc(O)cc3oc(=O)cc(-c4ccc(O)cc4)c23)[C@H](O)[C@@H](O)[C@H]1O [Compound 18, 6''-O-Acetyl-5-O-β-D-galactopyranosyl-7,4'-dihydroxy-4-phenylcoumarin] |  | 1.2 | 0.3486 ± 3e-05 |  | 3.46 | IC50 (hPTP1B1-400; [6]): 0.349 ± 0.0341 mM
12 | COc1cc(C)c2c(=O)c3c(O)cc(OC)cc3oc2c1 [Compound 9, Lichexanthone] | 0.0888 ± 0.00531 | 0.6 | 0.0888 ± 5e-06 | 0.0891 |  | 
13 | CC=CC1=CC=CC(=C2C(=O)CNC2=O)O1 [Compound 6, E/Z-vermelhotin] | 0.0796 ± 0.0957 | 0.6 and 0.56 | 0.0796 ± 0.0001 | 0.0794 |  | type of inhibition (PTP1B [2]): competitive parabolic inhibition; VMAX (PTP1B [2]): 24.7 mM/min; Ki (PTP1B [2]; [11]): 31 µM; Ki (PTP1B [2]; parabolic competitive model (Eq. 4), second inhibitor molecule, read-out: KIC2): 20 µM; LC50 (ICR mice): higher than 5,000 mg/kg
14 | COc1c(O)cc2ccc3cccc(O)c3c2c1OC [Compound 3, 3,4-Dimethoxy-2,5-phenanthrenediol] | 0.0477 ± 0.0982 | 0.34 and 0.3 | 0.0477 ± 0.0001 | 0.0479 |  | %I (hPTP1B1-400; 0.02 mM compound): 70.62 ± 0.58%; %I (hPTP1B1-400; 1 mM compound): 97.4 ± 0.69%; type of inhibition (PTP1B [2]): mixed-type; also recorded: mixed inhibitor; VMAX (PTP1B [2]): 56.1 mM/min; Ki (PTP1B [2]; [11]): 40 µM; Ki (PTP1B [2]; mixed type model (Eq. 3), read-out: KIU): 110 µM
15 | CCCCCCCCCCCCCCCCCCCCOC(=O)C=Cc1ccc(O)c(OC)c1 [Compound 43, Eicosyl 4-hydroxy-3-methoxy-cinnamate] | 0.648 ± 0.131 | 1.5 | 0.6483 ± 0.00013 | 0.646 |  | 
16 | O=C(O[C@@H]1Cc2c(O)cc(O)cc2O[C@@H]1c1ccc(O)c(O)c1)c1cc(O)c(O)c(O)c1 [Compound 82, (-)-Epicatechin 3-O-gallate] |  | 0.8 | 0.1424 ± 7e-06 |  | 3.85 | IC50 (hPTP1B1-400; [6]): 0.142 ± 0.00656 mM
17 | CC(=CCCC(C)C1CCC2(C)C3=CCC4C(C)(C)C(=O)CCC4(C)C3CCC12C)C(=O)O (stereo not drawn) [Compound 4, Masticadienonic acid] | 0.0491 ± 0.00475 | 0.4 | 0.0491 ± 4e-06 | 0.049 |  | 
18 | CC(=O)OCC(C)C1CCC2(C)C1CCC1(C)C2CCC2C3(C)CCCC(C)(C)C3CCC21C (stereo not drawn) [Compound 90, 21-α-H-Hopane acetate] |  | 1.6 and 1.61 | 0.8839 ± 0.0002 | 0.891 |  | IC50 (hPTP1B1-400; [6]): 0.884 ± 0.213 mM
19 | O=C1C[C@@H](c2ccccc2)Oc2cc(O)cc(O)c21 [Compound 53, Pinocembrin] | 0.306 ± 0.0184 | 1.1 | 0.3062 ± 2e-05 | 0.309 |  | 
20 | 4-Hydroxy-3,3',5-trimetoxybibencyl [Compound 77] |  | 1.0 | 0.221 ± 0.0001 |  | 3.66 | IC50 (hPTP1B1-400; [6]): 0.221 ± 0.147 mM
21 | C=C1C(=O)O[C@@H]2C[C@@]3(C)CCC=C(C)[C@@H]3C[C@H]12 [Compound 32, Isoalloalantolactone] | 0.443 ± 0.0513 | 1.3 | 0.4432 ± 5e-05 |  | 3.35 | 
